Data: patent publication EP0951284B1, “[…] DERIVATIVES” (priority 1996, dated 1998)
Where a name gives a salt, the structure may show the parent alone. Read-outs that look alike come from different tables or passages of the source.

Experiments:
MAO-A [1] = test: Inhibition of MAO activity ex vivo (brain tissue), 5-HT substrate; type: in vivo, mice; conditions: mouse brain tissue
Protocol: (§1) Male Sabra mice, weighing 45-50g were injected with test compound solutions (prepared in 0.9% saline). Each dose was administered to two or three mice. The mice were sacrificed two hours after drug administration or at a time corresponding to the peak AChE inhibition time (see Table 6). The brain and liver were rapidly dissected and stored in appropriate vials on ice. The tissues were weighed, diluted to 1/20 in sucrose 0.3M and stored at -20°C before performance of the MAO assay described above. The results given in Table 6 relate to measurements made on brain tissue only.

MAO-B [2] = molecular target: T1, MAO-B (Rattus norvegicus, UniProt P19643); test: Inhibition of MAO activity in vitro, rat brain homogenate, PEA substrate; type: biochemical; set-up: The MAO enzyme source was a homogenate of rat brain in 0.3M sucrose; from tissue; host or cells: rat brain homogenate (600G supernatant); conditions: PEA 50µM
T1 sequence (P19643 1-520): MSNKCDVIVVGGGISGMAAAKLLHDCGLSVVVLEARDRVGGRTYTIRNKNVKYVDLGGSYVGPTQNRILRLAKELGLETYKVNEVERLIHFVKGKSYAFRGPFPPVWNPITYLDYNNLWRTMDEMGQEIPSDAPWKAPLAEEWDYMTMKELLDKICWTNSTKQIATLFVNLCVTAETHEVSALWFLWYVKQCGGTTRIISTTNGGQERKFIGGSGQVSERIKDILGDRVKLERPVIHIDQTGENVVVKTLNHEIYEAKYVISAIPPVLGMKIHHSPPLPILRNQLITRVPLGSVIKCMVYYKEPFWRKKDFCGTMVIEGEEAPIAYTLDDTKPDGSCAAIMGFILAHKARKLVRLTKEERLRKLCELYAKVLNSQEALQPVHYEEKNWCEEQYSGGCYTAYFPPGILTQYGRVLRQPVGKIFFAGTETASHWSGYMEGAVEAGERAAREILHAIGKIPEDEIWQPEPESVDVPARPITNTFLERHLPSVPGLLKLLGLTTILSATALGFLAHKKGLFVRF
Protocol: (§2) The MAO enzyme source was a homogenate of rat brain in 0.3M sucrose, which was centrifuged at 600G for 15 minutes. The supernatant was diluted appropriately in 0.05M phosphate buffer, and pre-incubated with serial dilutions of test compounds for 20 minutes at 37°C. ^14C-Labeled substrates (2-phenylethylamine, hereinafter PEA; 5-hydroxytryptamine, hereinafter 5-HT) were then added, and the incubation continued for a further 20 minutes (PEA), or 30-45 minutes (5-HT). Substrate concentrations used were 50µM (PEA) and 1mM (5-HT). In the case of PEA, enzyme concentration was chosen so that not more than 10% of the substrate was metabolized during the course of the reaction. The deaminated products were extracted into toluene-ethyl acetate (1:1, v/v) containing 0.6% (w/v) 2,5-diphenyloxazole prior to determination by liquid scintillation counting. Radioactivity in the eluate indicates the production of neutral and acidic metabolites formed as a result of MAO activity. Activity of MAO in the sample was expressed as a percentage of control activity in the absence of inhibitors after subtraction of appropriate blank values The activity determined using PEA as substrate is referred to as MAO-B, and that determined using 5-HT as MAO-A.

MAO-A [3] = molecular target: T2, MAO-A (Rattus norvegicus, UniProt P21396); test: Inhibition of MAO activity in vitro, rat brain homogenate, 5-HT substrate
T2 sequence (P21396 1-526): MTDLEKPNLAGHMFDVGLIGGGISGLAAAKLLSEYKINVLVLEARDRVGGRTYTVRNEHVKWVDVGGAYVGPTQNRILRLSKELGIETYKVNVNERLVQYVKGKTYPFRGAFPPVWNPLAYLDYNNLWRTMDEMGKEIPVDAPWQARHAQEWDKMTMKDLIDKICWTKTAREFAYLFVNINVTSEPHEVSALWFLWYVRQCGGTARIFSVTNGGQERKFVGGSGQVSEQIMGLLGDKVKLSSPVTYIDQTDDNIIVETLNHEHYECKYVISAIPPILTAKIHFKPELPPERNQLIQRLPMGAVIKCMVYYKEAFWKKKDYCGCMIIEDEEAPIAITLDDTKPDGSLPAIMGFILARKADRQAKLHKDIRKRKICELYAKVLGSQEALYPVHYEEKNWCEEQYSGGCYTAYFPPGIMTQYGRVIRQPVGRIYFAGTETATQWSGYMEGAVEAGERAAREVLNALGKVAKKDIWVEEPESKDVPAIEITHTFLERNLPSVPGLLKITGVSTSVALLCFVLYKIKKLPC
Protocol: as §2

whole brain AChE = molecular target: T3, whole brain AChE (Mus musculus, UniProt P21836); test: Ex vivo measurement of brain AChE inhibition after sub-cutaneous administration; type: in vivo, mice; conditions: for ED50: sc, sub-cutaneous, mouse whole brain, at peak of activity, read-out: AChE Inhibition Ex vivo ED50 (AC)
T3 construct: the brains rapidly removed (minus cerebellum), weighed and homogenized in 0.1M phosphate buffer pH 8.0; from tissue; host or cells: mouse brain (minus cerebellum) homogenate supernatant
T3 sequence (P21836 32-614): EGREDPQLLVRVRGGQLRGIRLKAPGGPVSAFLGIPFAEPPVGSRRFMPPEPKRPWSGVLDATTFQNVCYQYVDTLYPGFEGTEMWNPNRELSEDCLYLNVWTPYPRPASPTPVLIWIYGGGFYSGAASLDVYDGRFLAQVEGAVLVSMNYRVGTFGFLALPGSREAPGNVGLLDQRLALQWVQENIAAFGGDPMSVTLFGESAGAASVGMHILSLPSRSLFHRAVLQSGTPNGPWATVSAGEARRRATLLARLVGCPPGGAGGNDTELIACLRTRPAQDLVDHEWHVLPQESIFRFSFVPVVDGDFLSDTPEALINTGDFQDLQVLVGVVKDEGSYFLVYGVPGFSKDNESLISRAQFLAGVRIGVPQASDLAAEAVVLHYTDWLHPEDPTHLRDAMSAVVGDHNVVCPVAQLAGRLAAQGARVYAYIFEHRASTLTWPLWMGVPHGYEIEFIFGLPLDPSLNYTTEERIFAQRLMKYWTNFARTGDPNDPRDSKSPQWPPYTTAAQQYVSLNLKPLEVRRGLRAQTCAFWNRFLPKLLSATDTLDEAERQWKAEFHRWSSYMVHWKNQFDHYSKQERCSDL
Protocol: Test drugs or saline were administered sub-cutaneously to male mice (Sabra strain, 28-35g). At least 4-5 mice were used per dose and a minimum of 3 doses per drug were tested. The mice were sacrificed 15, 30, 60, 70, 90, 120 or 180 minutes after drug administration, the brains rapidly removed (minus cerebellum), weighed and homogenized in 0.1M phosphate buffer pH 8.0, containing Triton (1mg/100g tissue) and centrifuged to remove cell debris. Aliquots (25 µl) of the supernatant were then incubated with acetylthiocholine and DTNB. AChE activity measured as described above. The % inhibition of whole brain AChE by each dose of drug was calculated by comparison with enzyme activity from 3 saline treated control mice run at the same time.

[4] = molecular target: T4, Human erythrocyte acetylcholinesterase (Homo sapiens, UniProt P22303); test: In vitro measurement of acetylcholinesterase (AChE) inhibition (Ellman method); type: biochemical; conditions: at time of peak activity, incubation 15 to 60 minutes at 37°C
T4 construct: Human erythrocyte acetylcholinesterase (type XIII, Sigma Israel); purchased Sigma Israel type XIII; host or cells: human erythrocytes
T4 sequence (P22303 32-617 isoform P22303-2 limits assumed): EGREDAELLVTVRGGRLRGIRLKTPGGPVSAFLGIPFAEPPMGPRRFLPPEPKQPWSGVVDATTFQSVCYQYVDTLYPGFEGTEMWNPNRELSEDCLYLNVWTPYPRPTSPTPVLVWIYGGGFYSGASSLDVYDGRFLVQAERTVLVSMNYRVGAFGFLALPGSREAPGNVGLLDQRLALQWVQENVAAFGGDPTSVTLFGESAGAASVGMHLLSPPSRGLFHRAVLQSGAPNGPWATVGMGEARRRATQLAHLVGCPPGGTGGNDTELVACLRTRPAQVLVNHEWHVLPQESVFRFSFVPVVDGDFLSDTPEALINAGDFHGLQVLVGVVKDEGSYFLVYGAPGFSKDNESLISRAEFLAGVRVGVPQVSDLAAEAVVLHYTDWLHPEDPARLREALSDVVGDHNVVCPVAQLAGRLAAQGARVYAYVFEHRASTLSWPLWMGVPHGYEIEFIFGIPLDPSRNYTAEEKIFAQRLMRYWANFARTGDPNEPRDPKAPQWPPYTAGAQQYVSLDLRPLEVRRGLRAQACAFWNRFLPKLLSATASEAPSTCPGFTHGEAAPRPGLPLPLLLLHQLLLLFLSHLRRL
Protocol: Human erythrocyte acetylcholinesterase (type XIII, Sigma Israel), was prepared in a stock solution of 1U/ml, containing Triton (1%) and bovine serum albumin (0.05%) in phosphate buffer (pH 8). The enzyme (0.05U) was incubated with 3-5 different concentrations of test compound (in triplicate) for periods of from 15 to 60 minutes at 37°C. […] The percentage inhibition of AChE by each concentration of drug is calculated by comparison with that of enzyme in the absence of drug.

MAO-B [5] = test: Inhibition of MAO activity ex vivo (brain tissue), PEA substrate; type: in vivo, mice; conditions: mouse brain tissue
Protocol: as §1

[6] = Acute toxicity in mice (sub-cutaneous, lethality within 6 hours); conditions: mouse, in vivo, sc; for selectivity ratio: LD50 divided by ED50 (acetylcholine esterase ex vivo), read-out: Therapeutic Ratio (LD/AC); for LD50 at 6 h: sub-cutaneous, mice, within 6 hours
Protocol: Drugs were administered sub-cutaneously in at least 3 doses, to a minimum of 10 mice per dose. […] Therapeutic Ratio was calculated as LD50 divided by ED50(acetylcholine esterase ex vivo).

[7] = read-out: MAO-A Inhibition In vitro IC50, rat brain homogenate, 5-HT 1mM

Compound	MAO-A Inhibition Ex vivo ED50 (MAO-A [1])	IC50 (MAO-B [2])	IC50 (MAO-A [3]; [7])	Time to peak activity t (whole brain AChE; AChE inhibition)	ED50 (whole brain AChE)	IC50 [4]	MAO-B Inhibition Ex vivo ED50 (MAO-B [5])	selectivity ratio [6]	LD50 at 6 h [6]	IC50 (MAO-A [3])	Time to return to 50% of peak t (whole brain AChE; AChE inhibition)
C#CCNCCc1cccc(OC(=O)N(C)CCC)c1 [Compound 14]	4.5 µmol/kg	300 nM	1800 nM	30 min	100 µmol/kg	12500 nM	0.6 µmol/kg				
C#CCN(C)CCc1cccc(OC(=O)N(C)CC)c1 [Compound 15]	35 µmol/kg	1000 nM		30 min	145 µmol/kg	67200 nM	35 µmol/kg	8.6	1250 µmol/kg	1000 nM	
C#CCNCCc1cccc(OC(=O)N(C)CC)c1 [Compound 13]	75 µmol/kg	8300 nM		30 to 90 min	53.8 µmol/kg	30000 nM	50 µmol/kg	8.5	458 µmol/kg	3300 nM	120 min
C#CCN(C)C(C)Cc1cccc(OC(=O)N(C)C)c1 (racemic) [Compound 20, (rac)-3-(N,N-dimethyl-carbamyloxy) -α-methyl-N'-methyl,N'-propargyl phenethylamine HCl]	6 µmol/kg	400 nM			15 µmol/kg	1700 nM	7 µmol/kg	11.3	170 µmol/kg	120 nM	
C#CCN(C)C(C)Cc1cccc(OC(=O)N(C)CC)c1 (stereo not shown) [Compound 21]		200 nM	120 nM			230000 nM					
